# Test results published in patent publication US12643871B2, “Aryl formamide compound containing chiral sulfur oxide or salt thereof, preparation method, herbicidal composition and use thereof” (Qingdao Kingagroot Chemical Compound Co., Ltd., priority 2019, dated 2026).
# Assays:
# Experiment in all cases: Weeding effect in post-emergence stage
# Format in all cases: in vivo
# Conditions in all cases: 250 g/ha; 2 leaf stage; 15 days after application; fresh weight control rate
# [1] = tested on: Abutilon theophrasti
# Procedure, shortened: (§1)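 Activity graded 0 (<5%) to 5 (>85%) from fresh-weight control rate, averaged over three repeats, 15 days after a spray-tower application. Plants at 2-leaf stage (2 weeks post-sowing) received 15–500 g/ha of compound formulated in acetone, Tween 80 and methyl oleate synergist (1.5 L/ha).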
# [2] = tested on: Digitaria sanguinalis
# Procedure, shortened: as §1
# [3] = tested on: Amaranthus retroflexus
# Procedure, shortened: as §1
# [4] = tested on: Setaria viridis
# Procedure, shortened: as §1
# [5] = tested on: Echinochloa crusgali
# Procedure, shortened: as §1
Compound,"weeding effect in post-emergence stage, activity level (growth control rate), Abutilon theophrasti [1]","weeding effect in post-emergence stage, activity level (growth control rate), Digitaria sanguinalis [2]","weeding effect in post-emergence stage, activity level (growth control rate), Amaranthus retroflexus [3]","weeding effect in post-emergence stage, activity level (growth control rate), Setaria viridis [4]","weeding effect in post-emergence stage, activity level (growth control rate), Echinochloa crusgali [5]"
Cc1nnc(NC(=O)c2ccc(C(F)(F)F)c([S+]([O-])C(F)(F)C(F)(F)C(F)(F)F)c2F)o1 (stereo not shown) [Compound 33],5 (Level 5: growth control rate is above 85%),5 (Level 5: growth control rate is above 85%),5 (Level 5: growth control rate is above 85%),5 (Level 5: growth control rate is above 85%),5 (Level 5: growth control rate is above 85%)
Cc1nnc(NC(=O)c2ccc(C(F)(F)F)c([S@+]([O-])CCCC(F)(F)F)c2F)o1 [Compound 34],5 (Level 5: growth control rate is above 85%),5 (Level 5: growth control rate is above 85%),5 (Level 5: growth control rate is above 85%),5 (Level 5: growth control rate is above 85%),5 (Level 5: growth control rate is above 85%)
Cc1nnc(NC(=O)c2ccc(C(F)(F)F)c([S@+]([O-])CCC(F)(F)C(F)(F)F)c2F)o1 [Compound 35],5 (Level 5: growth control rate is above 85%),5 (Level 5: growth control rate is above 85%),5 (Level 5: growth control rate is above 85%),5 (Level 5: growth control rate is above 85%),5 (Level 5: growth control rate is above 85%)
Cc1nnc(NC(=O)c2ccc(C(F)(F)F)c([S@+]([O-])CCC(F)(C(F)(F)F)C(F)(F)F)c2F)o1 [Compound 36],5 (Level 5: growth control rate is above 85%),5 (Level 5: growth control rate is above 85%),5 (Level 5: growth control rate is above 85%),5 (Level 5: growth control rate is above 85%),5 (Level 5: growth control rate is above 85%)
Cc1nnc(NC(=O)c2ccc(C(F)(F)F)c([S@+]([O-])CC(C)Cl)c2F)o1 (stereo partly shown) [Compound 38],5 (Level 5: growth control rate is above 85%),5 (Level 5: growth control rate is above 85%),5 (Level 5: growth control rate is above 85%),5 (Level 5: growth control rate is above 85%),5 (Level 5: growth control rate is above 85%)
Cc1nnc(NC(=O)c2ccc(C(F)(F)F)c([S@+]([O-])CCCC#N)c2F)o1 [Compound 53],5 (Level 5: growth control rate is above 85%),5 (Level 5: growth control rate is above 85%),5 (Level 5: growth control rate is above 85%),5 (Level 5: growth control rate is above 85%),5 (Level 5: growth control rate is above 85%)
Cc1nnc(NC(=O)c2ccc(C(F)(F)F)c([S@+]([O-])CCCO)c2F)o1 [Compound 55],5 (Level 5: growth control rate is above 85%),5 (Level 5: growth control rate is above 85%),5 (Level 5: growth control rate is above 85%),5 (Level 5: growth control rate is above 85%),5 (Level 5: growth control rate is above 85%)
Cc1nnc(NC(=O)c2ccc(C(F)(F)F)c([S@+]([O-])CC(C)O)c2F)o1 (stereo partly shown) [Compound 56],5 (Level 5: growth control rate is above 85%),5 (Level 5: growth control rate is above 85%),5 (Level 5: growth control rate is above 85%),5 (Level 5: growth control rate is above 85%),5 (Level 5: growth control rate is above 85%)
Cc1nnc(NC(=O)c2ccc(C(F)(F)F)c([S@+]([O-])CCCN)c2F)o1 [Compound 57],5 (Level 5: growth control rate is above 85%),5 (Level 5: growth control rate is above 85%),5 (Level 5: growth control rate is above 85%),5 (Level 5: growth control rate is above 85%),5 (Level 5: growth control rate is above 85%)
CCOC[S+]([O-])c1c(C(F)(F)F)ccc(C(=O)Nc2nnc(C)o2)c1F (stereo not shown) [Compound 70],5 (Level 5: growth control rate is above 85%),5 (Level 5: growth control rate is above 85%),5 (Level 5: growth control rate is above 85%),5 (Level 5: growth control rate is above 85%),5 (Level 5: growth control rate is above 85%)
COC(C)[S+]([O-])c1c(C(F)(F)F)ccc(C(=O)Nc2nnc(C)o2)c1F (stereo not shown) [Compound 71],5 (Level 5: growth control rate is above 85%),5 (Level 5: growth control rate is above 85%),5 (Level 5: growth control rate is above 85%),5 (Level 5: growth control rate is above 85%),5 (Level 5: growth control rate is above 85%)
COCC[S@@+]([O-])c1c(C(F)(F)F)ccc(C(=O)Nc2nnc(C)o2)c1F [Compound 72],5 (Level 5: growth control rate is above 85%),5 (Level 5: growth control rate is above 85%),5 (Level 5: growth control rate is above 85%),5 (Level 5: growth control rate is above 85%),5 (Level 5: growth control rate is above 85%)
CCOCC[S@@+]([O-])c1c(C(F)(F)F)ccc(C(=O)Nc2nnc(C)o2)c1F [Compound 73],5 (Level 5: growth control rate is above 85%),5 (Level 5: growth control rate is above 85%),5 (Level 5: growth control rate is above 85%),5 (Level 5: growth control rate is above 85%),5 (Level 5: growth control rate is above 85%)
COC(C)C[S@@+]([O-])c1c(C(F)(F)F)ccc(C(=O)Nc2nnc(C)o2)c1F (stereo partly shown) [Compound 74],5 (Level 5: growth control rate is above 85%),5 (Level 5: growth control rate is above 85%),5 (Level 5: growth control rate is above 85%),5 (Level 5: growth control rate is above 85%),5 (Level 5: growth control rate is above 85%)
